The nature of data set [1]: refractive index (Na D-line) (dimensionless). To be noted: 298.15 K; 101.33 kPa; Liquid; Standard Abbe refractometry.
For data set [2] the following is noted: Liquid; for mass density: 293.15 K, 101.33 kPa, Vibrating tube method; for Normal boiling temperature: Closed cell (Static) method.

The term refractive index denotes the speed of light in vacuum divided by its phase velocity in the sample. As usually defined, the mass density is mass per unit of volume.

Numbers after ± are expanded uncertainties.

For the molecule `CC(=O)O` [acetic acid], the refractive index in data set [1] was determined as 1.37104 ± 0.00052. Further, in data set [2], the mass density amounted to 1044.3 ± 0.96 kg/m3 and the Normal boiling temperature amounted to 117.1 ± 1.1 °C.
For `O` [water], in that order: 1.33244 ± 0.00033, 999.9 ± 0.24 kg/m3 and 100.1 ± 1 °C.
On to `CCCCCCC(=O)OCC` [ethyl heptanoate], for which, in data set [1], the refractive index amounted to 1.41123 ± 0.00052. Further, in data set [2], the mass density amounted to 881.3 ± 0.74 kg/m3 and the Normal boiling temperature was 187.2 ± 1.1 °C.
As to `O=CO` [formic acid], in data set [1], the refractive index amounted to 1.3721 ± 0.00052. Besides, in data set [2], the mass density is given as 1218.5 ± 1.4 kg/m3 and the Normal boiling temperature came to 101.1 ± 1.1 °C.

Values taken from the NIST ThermoML archive (doi:10.1016/j.fluid.2013.07.015).
